Structures can show the parent of a compound that is named as a salt.
How the values were obtained:
human TLR8 = target: T1, human TLR8 (Homo sapiens, UniProt Q9NR97); assay: HEK-Blue hTLR8 reporter cell assay (SEAP, NF-kB/AP-1) for stimulation of human TLR8; format: cell-based; conditions: HEK-Blue hTLR8 cells; for EC50: 24 h incubation, SEAP readout, read-out: TLR8_EC50
T1 construct: host or cells: HEK293 (HEK-Blue hTLR8)
T1 sequence (Q9NR97 27-1041): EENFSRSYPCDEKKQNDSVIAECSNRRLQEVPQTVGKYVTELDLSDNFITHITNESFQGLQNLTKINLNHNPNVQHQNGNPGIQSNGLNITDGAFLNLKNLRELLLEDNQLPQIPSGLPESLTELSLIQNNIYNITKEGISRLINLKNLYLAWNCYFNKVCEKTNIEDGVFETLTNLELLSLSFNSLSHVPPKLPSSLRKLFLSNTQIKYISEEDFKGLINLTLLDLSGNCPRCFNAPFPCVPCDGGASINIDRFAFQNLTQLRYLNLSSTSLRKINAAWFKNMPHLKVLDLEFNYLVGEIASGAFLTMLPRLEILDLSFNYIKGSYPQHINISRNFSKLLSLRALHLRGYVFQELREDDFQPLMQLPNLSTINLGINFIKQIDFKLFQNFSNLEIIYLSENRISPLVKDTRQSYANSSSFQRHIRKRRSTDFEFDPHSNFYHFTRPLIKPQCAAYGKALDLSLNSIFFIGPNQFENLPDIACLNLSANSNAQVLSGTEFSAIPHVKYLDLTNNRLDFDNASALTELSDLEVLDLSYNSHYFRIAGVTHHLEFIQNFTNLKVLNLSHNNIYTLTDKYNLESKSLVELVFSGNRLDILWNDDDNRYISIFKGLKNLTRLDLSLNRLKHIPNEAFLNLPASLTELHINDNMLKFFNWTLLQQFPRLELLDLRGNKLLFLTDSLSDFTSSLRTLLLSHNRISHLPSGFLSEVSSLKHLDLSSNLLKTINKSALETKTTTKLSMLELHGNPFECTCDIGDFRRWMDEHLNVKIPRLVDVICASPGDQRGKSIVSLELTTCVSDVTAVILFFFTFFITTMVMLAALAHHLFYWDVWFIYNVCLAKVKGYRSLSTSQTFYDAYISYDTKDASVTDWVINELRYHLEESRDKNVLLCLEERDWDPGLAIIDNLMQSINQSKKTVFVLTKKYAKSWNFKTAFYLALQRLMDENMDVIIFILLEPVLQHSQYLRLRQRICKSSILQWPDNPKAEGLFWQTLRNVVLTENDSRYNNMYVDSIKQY
Description: (§1) The below tests, involving measuring the in vitro activity of some compounds of the disclosure on TLR7 and TLR8, were carried out using the HEK-Blue™ cells as reporter.
(§2) In Vitro Assay for Studying the Stimulation of Human TLR7 and TLR8:
HEK-Blue™ hTLR7 Cells (#hkb-htlr7) and HEK-Blue™ hTLR8 Cells (#hkb-htlr8) from InvivoGen were used according to the manufacturer's instructions. These Reporter HEK293 cells were obtained by co-transfection of the hTLR7 or TLR8 gene and an optimized Secreted Embryonic Alkaline Phosphatase (SEAP) reporter gene which is placed under the control of the IFN-β minimal promoter fused to five NF-κB and AP-1-binding sites. Stimulation with a TLR7/8 ligand activates NF-kB and AP-1 which induce the production of SEAP. The cells are seeded in 96-well plate at 3.10E4 cells/well and incubated 18 to 24 h at 37° C., 5% CO2 before adding the compounds to evaluate. […] Next, 20 μL of the supernatant is harvested and incubated with 200 μL of QUANTI-Blue™ Solution.

human TLR7 = target: T2, human TLR7 (Homo sapiens, UniProt Q9NYK1); assay: HEK-Blue hTLR7 reporter cell assay (SEAP, NF-kB/AP-1) for stimulation of human TLR7; format: cell-based; conditions: HEK-Blue hTLR7 cells; for EC50: 24 h incubation, SEAP readout, read-out: TLR7_EC50; for activation at 20 µM: 24 h, at 20000 nM
T2 construct: host or cells: HEK293 (HEK-Blue hTLR7)
T2 sequence (Q9NYK1 27-1049): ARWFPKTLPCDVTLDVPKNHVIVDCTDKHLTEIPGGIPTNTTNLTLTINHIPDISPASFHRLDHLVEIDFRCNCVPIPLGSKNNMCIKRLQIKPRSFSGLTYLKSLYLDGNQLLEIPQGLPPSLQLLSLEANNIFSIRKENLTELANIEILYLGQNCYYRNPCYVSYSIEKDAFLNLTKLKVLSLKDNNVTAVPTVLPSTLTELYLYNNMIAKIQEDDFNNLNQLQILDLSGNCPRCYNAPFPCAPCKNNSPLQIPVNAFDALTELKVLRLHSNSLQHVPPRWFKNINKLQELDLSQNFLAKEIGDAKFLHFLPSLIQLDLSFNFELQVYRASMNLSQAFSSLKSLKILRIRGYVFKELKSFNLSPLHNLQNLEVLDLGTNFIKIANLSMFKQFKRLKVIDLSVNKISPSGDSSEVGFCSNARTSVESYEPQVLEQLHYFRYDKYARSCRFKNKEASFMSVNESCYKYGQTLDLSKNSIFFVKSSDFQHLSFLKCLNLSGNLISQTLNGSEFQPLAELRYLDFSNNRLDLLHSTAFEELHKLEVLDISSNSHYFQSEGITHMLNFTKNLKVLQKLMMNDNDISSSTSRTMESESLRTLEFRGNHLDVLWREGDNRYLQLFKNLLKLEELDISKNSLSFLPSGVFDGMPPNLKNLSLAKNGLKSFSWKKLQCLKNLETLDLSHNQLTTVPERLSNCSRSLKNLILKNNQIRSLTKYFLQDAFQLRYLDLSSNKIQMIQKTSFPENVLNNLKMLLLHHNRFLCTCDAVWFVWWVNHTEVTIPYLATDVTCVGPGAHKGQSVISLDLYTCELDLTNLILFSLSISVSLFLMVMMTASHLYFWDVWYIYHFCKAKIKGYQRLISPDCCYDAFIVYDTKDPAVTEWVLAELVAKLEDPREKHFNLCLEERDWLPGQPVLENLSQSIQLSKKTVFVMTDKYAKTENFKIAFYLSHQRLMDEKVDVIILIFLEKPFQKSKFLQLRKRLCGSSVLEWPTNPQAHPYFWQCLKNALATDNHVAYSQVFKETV
Description: as §1
The activity described below, with respect to TLR7, TLR8, IFN-α2a, IL-6, IL29 and TNF-α, is given by the half maximal effective concentration (EC50), which corresponds to the concentration required to obtain a 50% of the activation. The lower the EC50, the less the concentration of the compound is required to produce 50% of maximum activation and the higher the potency.
as §2
HEK-Blue™ hTLR7 Cells (#hkb-htlr7) and HEK-Blue™ hTLR8 Cells (#hkb-htlr8) from InvivoGen were used according to the manufacturer's instructions. These Reporter HEK293 cells were obtained by co-transfection of the hTLR7 or TLR8 gene and an optimized Secreted Embryonic Alkaline Phosphatase (SEAP) reporter gene which is placed under the control of the IFN-β minimal promoter fused to five NF-κB and AP-1-binding sites. Stimulation with a TLR7/8 ligand activates NF-kB and AP-1 which induce the production of SEAP. The cells are seeded in 96-well plate at 3.10E4 cells/well and incubated 18 to 24 h at 37° C., 5% CO2 before adding the compounds to evaluate. The cells are subsequently incubated with 3-fold serial dilutions of each of the compounds (0.01 to 20 μM) for 24 hours at 37° C., 5% CO2. Next, 20 μL of the supernatant is harvested and incubated with 200 μL of QUANTI-Blue™ Solution.

| Compound | EC50 (human TLR8) | EC50 (human TLR7) | activation at 20 µM (human TLR7) | activation at 20 µM (human TLR8; 24 h, at 20000 nM) |
| --- | --- | --- | --- | --- |
| CCCCc1nc2c(N)nnc(-c3cnn(C)c3)c2n1Cc1ccc(OC)cc1 [Compound 97, 2-butyl-1-(4-methoxybenzyl)-7-(1-methyl-1H-pyrazol-4-yl)-1H-imidazo[4,5-d]pyridazin-4-amine] | > 20000 nM |  | 13% |  |
| CCCCc1nc2c(N)nnc(N(C)Cc3ccc(CN)cc3)c2n1C [Compound 46, N7-(4-(aminomethyl)benzyl)-2-butyl-N7,1-dimethyl-1H-imidazo[4,5-d]pyridazine-4,7-diamine] | 4070 nM | 6140 nM |  |  |
| CCNCc1nc2c(N)nnc(OC(C)C)c2n1Cc1ccc(CN)cc1 [Compound 164, 3-[[4-(aminomethyl)phenyl]methyl]-2-(ethylaminomethyl)-4-isopropoxy-imidazo[4,5-d]pyridazin-7-amine] |  |  | 4.8% | 10.8% |
| CCCCc1nc2c(N)nnc(OC(C)C)c2n1Cc1ccc(CNCC(=O)OC(C)(C)C)cc1 [Compound 117, tert-butyl (4-((4-amino-2-butyl-7-isopropoxy-1H-imidazo[4,5-d]pyridazin-1-yl)methyl)benzyl)glycinate] | 8880 nM | 190 nM |  |  |
| CCCCc1nc2c(N)nnc(CC(C)C)c2n1Cc1ccc(OC)cc1 [Compound 61, 2-butyl-7-isobutyl-1-(4-methoxybenzyl)-1H-imidazo[4,5-d]pyridazin-4-amine] | > 20000 nM | 1180 nM |  |  |
| CCCCc1nc2c(N)nnc(OC(C)C)c2n1Cc1ccc(CNC(=O)CCOCCOC)cc1 [Compound 31, N-(4-((4-amino-2-butyl-7-isopropoxy-1H-imidazo[4,5-d]pyridazin-1-yl)methyl)benzyl)-3-(2-methoxyethoxy)propanamide] | > 20000 nM | 326 nM |  |  |
| CCCCc1nc2c(N)nnc(CCC(C)C)c2n1Cc1ccc(OC)cc1 [Compound 13, 2-butyl-7-isopentyl-1-(4-methoxybenzyl)-1H-imidazo[4,5-d]pyridazin-4-amine] | > 20000 nM | 345 nM |  |  |
| CCCCc1nc2c(N)nnc(CCC(C)C)c2n1C[C@H]1CC[C@H](CN)CC1 [Compound 138, 1-(((1R,4R)-4-(aminomethyl)cyclohexyl)methyl)-2-butyl-7-isopentyl-1H-imidazo[4,5-d]pyridazin-4-amine] | > 20000 nM | 51.4 nM |  |  |
| CCCCc1nc2c(N)nnc(-c3ccsc3)c2n1Cc1ccc(OC)cc1 [Compound 62, 2-butyl-1-(4-methoxybenzyl)-7-(thiophen-3-yl)-1H-imidazo[4,5-d]pyridazin-4-amine] | > 20000 nM | 771 nM |  |  |
| CCCCc1nc2c(N)nnc(CCC(C)C)c2n1Cc1ccc(CN)cc1 [Compound 133, 1-(4-(aminomethyl)benzyl)-2-butyl-7-isopentyl-1H-imidazo[4,5-d]pyridazin-4-amine] | > 19000 nM | 146 nM |  |  |
| CCCCc1nc2c(N)nnc(OC(C)C)c2n1Cc1ccc(CNC(=O)c2ccccc2)cc1 [Compound 106, N-(4-((4-amino-2-butyl-7-isopropoxy-1H-imidazo[4,5-d]pyridazin-1-yl)methyl)benzyl)benzamide] |  | 68 nM |  |  |

Continued, values first:

| EC50 (human TLR8) | EC50 (human TLR7) | activation at 20 µM (human TLR7) | activation at 20 µM (human TLR8; 24 h, at 20000 nM) | Compound |
| --- | --- | --- | --- | --- |
| > 20000 nM | 117 nM |  |  | CCCCc1nc2c(N)nnc(OC(C)C)c2n1CC1CCCCC1 [Compound 81, 2-butyl-1-(cyclohexylmethyl)-7-isopropoxy-1H-imidazo[4,5-d]pyridazin-4-amine hydrochloride] |
| 179 nM | 93 nM |  |  | CCCCc1nc2c(N)nnc(OC(C)C)c2n1Cc1cccc(CNC2CC2)c1 [Compound 127, 2-butyl-1-(3-((cyclopropylamino)methyl)benzyl)-7-isopropoxy-1H-imidazo[4,5-d]pyridazin-4-amine dihydrochloride salt] |
| 6960 nM | 4400 nM |  |  | CCCCc1nc2c(N)nnc(OC(C)C)c2n1C [Compound 86, 2-butyl-7-isopropoxy-1-methyl-1H-imidazo[4,5-d]pyridazin-4-amine] |
| > 20000 nM | 161 nM |  |  | CCCCC(=O)NCc1ccc(Cn2c(CCCC)nc3c(N)nnc(OC(C)C)c32)cc1 [Compound 30, N-(4-((4-amino-2-butyl-7-isopropoxy-1H-imidazo[4,5-d]pyridazin-1-yl)methyl)benzyl)pentanamide] |
| 17900 nM | 586 nM |  |  | CCCCc1nc2c(N)nnc(OC(C)C)c2n1Cc1cccnc1 [Compound 74, 2-butyl-7-isopropoxy-1-(pyridin-3-ylmethyl)-1H-imidazo[4,5-d]pyridazin-4-amine] |
| > 16500 nM | 107 nM |  |  | CCCCc1nc2c(N)nnc(OC(C)C)c2n1Cc1ccc(CNS(C)(=O)=O)cc1 [Compound 115, N-(4-((4-amino-2-butyl-7-isopropoxy-1H-imidazo[4,5-d]pyridazin-1-yl)methyl)benzyl)methanesulfonamide] |
|  | 117 nM |  |  | CCCCc1nc2c(N)nnc(OC(C)C)c2n1CCCCCCNC1CS(=O)(=O)C1 [Compound 154, 2-butyl-3-[6-[(1,1-dioxothietan-3-yl)amino]hexyl]-4-isopropoxy-imidazo[4,5-d]pyridazin-7-amine] |
